Source: patent US9949979B2, “Use of inhibitors of the activity or function of PI3K” (NOVARTIS AG, priority 2011, dated 2018)

Target: PI3K delta (Homo sapiens, UniProt O00329)
Experiment: PI3K delta inhibition in Rat1-myr-HA-p110 delta cells (Akt Ser473 phosphorylation, AlphaScreen SureFire)
Assay type: cell-based
Set-up: myristylation signal (myr) (N); HA tag (N); expressed in transfected cells; host or cells: Rat1 cells, stably transfected
Details: read-out: Cell PI3Kδ/ IC50
Description: Untreated cells were used as low controls, cells stimulated in absence of compounds were used as high controls. […] Cell lysates were either used immediately of stored frozen (in sealed plates) at −20° C. until use. […] Addition of AlphaScreen® SureFire® reagents was done according to the manufacturer's protocol. First, 5 ul of reaction buffer plus activation buffer mix containing AlphaScreen® acceptor beads was added, the plate was sealed, and incubated on a plate shaker for 2 hours at room temperature. […] The difference between high and low controls was taken as 100% and compound effects were expressed as percent inhibition. IC50 values were determined from the dose response curves by graphical extrapolation.

Sequence of PI3K delta (O00329 whole entry): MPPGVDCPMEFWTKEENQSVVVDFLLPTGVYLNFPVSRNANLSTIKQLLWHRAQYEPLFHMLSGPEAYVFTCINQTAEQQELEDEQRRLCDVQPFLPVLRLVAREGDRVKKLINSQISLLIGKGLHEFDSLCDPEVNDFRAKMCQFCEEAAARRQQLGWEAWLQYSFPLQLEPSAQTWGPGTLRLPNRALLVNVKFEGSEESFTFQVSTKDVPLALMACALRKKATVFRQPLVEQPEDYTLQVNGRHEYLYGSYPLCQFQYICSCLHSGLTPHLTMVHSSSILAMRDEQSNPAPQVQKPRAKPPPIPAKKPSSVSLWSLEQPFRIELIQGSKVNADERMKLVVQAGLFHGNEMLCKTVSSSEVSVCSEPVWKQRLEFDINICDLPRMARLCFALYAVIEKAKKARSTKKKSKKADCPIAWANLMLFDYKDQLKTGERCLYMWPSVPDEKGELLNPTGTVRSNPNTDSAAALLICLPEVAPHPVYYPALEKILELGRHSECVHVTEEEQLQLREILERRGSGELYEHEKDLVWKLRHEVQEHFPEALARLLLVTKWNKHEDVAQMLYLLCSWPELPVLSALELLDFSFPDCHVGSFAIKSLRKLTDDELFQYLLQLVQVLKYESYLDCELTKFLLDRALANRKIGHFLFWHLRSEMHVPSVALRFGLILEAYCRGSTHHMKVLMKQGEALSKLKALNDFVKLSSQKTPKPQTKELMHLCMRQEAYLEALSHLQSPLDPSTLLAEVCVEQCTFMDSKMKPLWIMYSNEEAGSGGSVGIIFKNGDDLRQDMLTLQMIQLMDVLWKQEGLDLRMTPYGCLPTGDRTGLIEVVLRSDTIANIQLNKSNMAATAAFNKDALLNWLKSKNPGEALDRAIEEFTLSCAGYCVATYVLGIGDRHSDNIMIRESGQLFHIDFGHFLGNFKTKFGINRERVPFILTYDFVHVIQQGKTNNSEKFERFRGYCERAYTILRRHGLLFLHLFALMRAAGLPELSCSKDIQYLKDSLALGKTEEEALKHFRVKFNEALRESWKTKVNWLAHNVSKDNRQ
Sequence of PI3K delta (Q63787 whole entry partner): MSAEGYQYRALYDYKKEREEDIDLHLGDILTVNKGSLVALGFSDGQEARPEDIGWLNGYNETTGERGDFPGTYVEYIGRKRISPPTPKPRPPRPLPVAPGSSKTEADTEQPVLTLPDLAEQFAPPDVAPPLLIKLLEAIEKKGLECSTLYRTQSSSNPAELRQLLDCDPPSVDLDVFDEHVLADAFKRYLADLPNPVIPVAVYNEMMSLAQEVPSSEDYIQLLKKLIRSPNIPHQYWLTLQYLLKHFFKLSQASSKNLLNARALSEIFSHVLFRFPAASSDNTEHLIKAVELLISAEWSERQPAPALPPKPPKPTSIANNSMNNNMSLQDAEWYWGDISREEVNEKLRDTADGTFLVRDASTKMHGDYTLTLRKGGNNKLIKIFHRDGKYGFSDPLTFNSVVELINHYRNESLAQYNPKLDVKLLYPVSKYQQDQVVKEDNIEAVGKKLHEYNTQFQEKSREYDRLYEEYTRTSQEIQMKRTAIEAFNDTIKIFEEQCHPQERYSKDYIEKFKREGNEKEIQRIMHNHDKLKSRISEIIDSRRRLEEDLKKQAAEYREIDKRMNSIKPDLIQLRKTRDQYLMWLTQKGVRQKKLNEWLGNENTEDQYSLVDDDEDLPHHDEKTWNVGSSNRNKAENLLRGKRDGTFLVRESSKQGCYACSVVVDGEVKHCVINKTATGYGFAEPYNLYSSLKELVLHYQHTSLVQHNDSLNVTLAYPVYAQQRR

- IC50: 254 nM
Structure (SMILES): COc1ncc(N2CCc3ncnc(O[C@H]4CCN(C(=O)c5cn(C)cn5)C4)c3C2)cc1C [Example 20, {(S)-3-[6-(6-Methoxy-5-methyl-pyridin-3-yl)-5,6,7,8-tetrahydro-pyrido[4,3-d]pyrimidin-4-yloxy]-pyrrolidin-1-yl}-(1-methyl-1H-imidazol-4-yl)-methanone]
